Measurements: ChEMBL document CHEMBL3044649, “Zn(OTf)2-catalyzed three component, one-pot cyclocondensation reaction of some new octahydroquinazolinone derivatives and access their bio-potential” (2012)
Converted amounts (≈) assume the structure as drawn.

Key:
Assay type in all cases: functional
Aspergillus fumigatus = experiment: Antimicrobial activity against Aspergillus fumigatus MTCC 3008 after 24 to 48 hr by broth microdilution method
Candida albicans = experiment: Antimicrobial activity against Candida albicans MTCC 227 after 24 to 48 hr by broth microdilution method
Clostridium tetani = experiment: Antimicrobial activity against Clostridium tetani MTCC 449 after 24 to 48 hr by broth microdilution method
Bacillus subtilis = experiment: Antimicrobial activity against Bacillus subtilis MTCC 441 after 24 to 48 hr by broth microdilution method
Streptococcus pneumoniae = experiment: Antimicrobial activity against Streptococcus pneumoniae MTCC 1936 after 24 to 48 hr by broth microdilution method
Vibrio cholerae = experiment: Antimicrobial activity against Vibrio cholerae MTCC 3906 after 24 to 48 hr by broth microdilution method
Salmonella typhi = experiment: Antimicrobial activity against Salmonella enterica subsp. enterica serovar Typhi MTCC 98 after 24 to 48 hr by broth microdilution method
Escherichia coli = experiment: Antimicrobial activity against Escherichia coli MTCC 443 after 24 to 48 hr by broth microdilution method

Row | Molecule | MIC (Aspergillus fumigatus) [µg/mL] | MIC (Candida albicans) [µg/mL] | MIC (Clostridium tetani) [µg/mL] | MIC (Bacillus subtilis) [µg/mL] | MIC (Streptococcus pneumoniae) [µg/mL] | MIC (Vibrio cholerae) [µg/mL] | MIC (Salmonella typhi) [µg/mL] | MIC (Escherichia coli) [µg/mL]
1 | Cc1ccc2[nH]c(=O)c(C3NC(=S)NC4=C3C(=O)CC(C)(C)C4)cc2c1 (stereo not given) | > 1000 | > 1000 | 100 (≈ 272 µM) | 100 (≈ 272 µM) | 100 (≈ 272 µM) | 100 (≈ 272 µM) | 150 (≈ 408 µM) | 250 (≈ 680 µM)
2 | O=C1NC2=C(C(=O)CCC2)C(c2cc3ccccc3[nH]c2=O)N1 (stereo not given) | > 1000 | 500 (≈ 1620 µM) | 100 (≈ 323 µM) | 200 (≈ 647 µM) | 100 (≈ 323 µM) | 500 (≈ 1620 µM) | 250 (≈ 808 µM) | 250 (≈ 808 µM)
3 | Cc1ccc2[nH]c(=O)c(C3NC(=S)N(c4ccccc4)C4=C3C(=O)CC(C)(C)C4)cc2c1 (stereo not given) | 500 (≈ 1130 µM) | 1000 (≈ 2250 µM) | 250 (≈ 564 µM) | 250 (≈ 564 µM) | 1000 (≈ 2250 µM) | 250 (≈ 564 µM) | 500 (≈ 1130 µM) | 1000 (≈ 2250 µM)
4 | COc1ccc2[nH]c(=O)c(C3NC(=O)NC4=C3C(=O)CCC4)cc2c1 (stereo not given) | 1000 (≈ 2950 µM) | 500 (≈ 1470 µM) | 500 (≈ 1470 µM) | 250 (≈ 737 µM) | 250 (≈ 737 µM) | 500 (≈ 1470 µM) | 250 (≈ 737 µM) | 100 (≈ 295 µM)
5 | O=C(O)c1cn(C2CC2)c2cc(N3CCNCC3)c(F)cc2c1=O [CIPROFLOXACIN] |  |  |  |  | 50 (≈ 151 µM) | 25 (≈ 75.4 µM) | 25 (≈ 75.4 µM) | 25 (≈ 75.4 µM)
6 | O=C1CCCC2=C1C(c1cc3cc(Cl)ccc3[nH]c1=O)NC(=S)N2 (stereo not given) | 1000 (≈ 2780 µM) | 500 (≈ 1390 µM) | 250 (≈ 695 µM) | 250 (≈ 695 µM) | 250 (≈ 695 µM) | 250 (≈ 695 µM) | 200 (≈ 556 µM) | 100 (≈ 278 µM)
7 | COC1=CC(=O)C[C@@H](C)[C@]12Oc1c(Cl)c(OC)cc(OC)c1C2=O [GRISEOFULVIN] | 100 (≈ 283 µM) | 500 (≈ 1420 µM) |  |  |  |  |  | 
8 | O=C1CCCC2=C1C(c1cc3ccccc3[nH]c1=O)NC(=S)N2c1ccccc1 (stereo not given) | 250 (≈ 623 µM) | 500 (≈ 1250 µM) | 100 (≈ 249 µM) | 250 (≈ 623 µM) | 150 (≈ 374 µM) | 200 (≈ 498 µM) | 100 (≈ 249 µM) | 150 (≈ 374 µM)
9 | O=C1NC2=C(C(=O)CCC2)C(c2cc3cc(Cl)ccc3[nH]c2=O)N1 (stereo not given) | 1000 (≈ 2910 µM) | 1000 (≈ 2910 µM) | 500 (≈ 1450 µM) | 250 (≈ 727 µM) | 500 (≈ 1450 µM) | 100 (≈ 291 µM) | 250 (≈ 727 µM) | 200 (≈ 582 µM)
10 | GENTAMICIN |  |  | 5 | 1 | 0.5 | 5 | 5 | 0.05
11 | Cc1ccc2[nH]c(=O)c(C3NC(=S)NC4=C3C(=O)CCC4)cc2c1 (stereo not given) | 500 (≈ 1470 µM) | 200 (≈ 589 µM) | 500 (≈ 1470 µM) | 500 (≈ 1470 µM) | 500 (≈ 1470 µM) | 500 (≈ 1470 µM) | 500 (≈ 1470 µM) | 500 (≈ 1470 µM)
12 | CC1(C)CC(=O)C2=C(C1)NC(=S)NC2c1cc2cc(Cl)ccc2[nH]c1=O (stereo not given) | 1000 (≈ 2580 µM) | 500 (≈ 1290 µM) | 250 (≈ 645 µM) | 50 (≈ 129 µM) | 50 (≈ 129 µM) | 50 (≈ 129 µM) | 25 (≈ 64.5 µM) | 125 (≈ 322 µM)
13 | COc1ccc2[nH]c(=O)c(C3NC(=O)NC4=C3C(=O)CC(C)(C)C4)cc2c1 (stereo not given) | 1000 (≈ 2720 µM) | 500 (≈ 1360 µM) | 100 (≈ 272 µM) | 250 (≈ 680 µM) | 250 (≈ 680 µM) | 50 (≈ 136 µM) | 150 (≈ 408 µM) | 100 (≈ 272 µM)
14 | O=C1CCCC2=C1C(c1cc3ccccc3[nH]c1=O)NC(=S)N2 (stereo not given) | 200 (≈ 615 µM) | 100 (≈ 307 µM) | 200 (≈ 615 µM) | 200 (≈ 615 µM) | 200 (≈ 615 µM) | 500 (≈ 1540 µM) | 500 (≈ 1540 µM) | 100 (≈ 307 µM)
15 | CC1(C)S[C@@H]2[C@H](NC(=O)[C@H](N)c3ccccc3)C(=O)N2[C@H]1C(=O)O [AMPICILLIN] |  |  | 250 (≈ 715 µM) | 250 (≈ 715 µM) | 100 (≈ 286 µM) | 100 (≈ 286 µM) | 100 (≈ 286 µM) | 100 (≈ 286 µM)
16 | Cc1ccc2[nH]c(=O)c(C3NC(=O)NC4=C3C(=O)CC(C)(C)C4)cc2c1 (stereo not given) | 1000 (≈ 2850 µM) | 500 (≈ 1420 µM) | 100 (≈ 285 µM) | 100 (≈ 285 µM) | 100 (≈ 285 µM) | 1000 (≈ 2850 µM) | 250 (≈ 711 µM) | 100 (≈ 285 µM)
17 | NYSTATIN | 100 | 100 |  |  |  |  |  | 
18 | CC1(C)CC(=O)C2=C(C1)NC(=O)NC2c1cc2ccccc2[nH]c1=O (stereo not given) | 500 (≈ 1480 µM) | 500 (≈ 1480 µM) | 200 (≈ 593 µM) | 500 (≈ 1480 µM) | 250 (≈ 741 µM) | 250 (≈ 741 µM) | 250 (≈ 741 µM) | 100 (≈ 296 µM)
19 | Cc1ccc2[nH]c(=O)c(C3NC(=O)NC4=C3C(=O)CCC4)cc2c1 (stereo not given) | 1000 (≈ 3090 µM) | 1000 (≈ 3090 µM) | 200 (≈ 619 µM) | 500 (≈ 1550 µM) | 100 (≈ 309 µM) | 200 (≈ 619 µM) | 500 (≈ 1550 µM) | 500 (≈ 1550 µM)
20 | COc1ccc2[nH]c(=O)c(C3NC(=S)NC4=C3C(=O)CCC4)cc2c1 (stereo not given) | > 1000 | 500 (≈ 1410 µM) | 200 (≈ 563 µM) | 200 (≈ 563 µM) | 200 (≈ 563 µM) | 200 (≈ 563 µM) | 125 (≈ 352 µM) | 50 (≈ 141 µM)
21 | O=C1NC2=C(C(=O)CCC2)C(c2cc3ccccc3[nH]c2=S)N1 (stereo not given) | 500 (≈ 1540 µM) | 1000 (≈ 3070 µM) | 500 (≈ 1540 µM) | 500 (≈ 1540 µM) | 500 (≈ 1540 µM) | 500 (≈ 1540 µM) | 200 (≈ 615 µM) | 500 (≈ 1540 µM)
22 | O=C1CCCC2=C1C(c1cc3ccccc3[nH]c1=S)NC(=S)N2 (stereo not given) | > 1000 | 250 (≈ 732 µM) | 250 (≈ 732 µM) | 250 (≈ 732 µM) | 500 (≈ 1460 µM) | 250 (≈ 732 µM) | 200 (≈ 586 µM) | 250 (≈ 732 µM)
23 | CC1(C)CC(=O)C2=C(C1)NC(=O)NC2c1cc2cc(Cl)ccc2[nH]c1=O (stereo not given) | > 1000 | 500 (≈ 1340 µM) | 100 (≈ 269 µM) | 200 (≈ 538 µM) | 500 (≈ 1340 µM) | 500 (≈ 1340 µM) | 200 (≈ 538 µM) | 100 (≈ 269 µM)
24 | CC1(C)CC(=O)C2=C(C1)NC(=S)NC2c1cc2ccccc2[nH]c1=O (stereo not given) | 500 (≈ 1410 µM) | 500 (≈ 1410 µM) | 500 (≈ 1410 µM) | 500 (≈ 1410 µM) | 500 (≈ 1410 µM) | 500 (≈ 1410 µM) | 150 (≈ 424 µM) | 125 (≈ 354 µM)
25 | CC1(C)CC(=O)C2=C(C1)N(c1ccccc1)C(=S)NC2c1cc2ccccc2[nH]c1=O (stereo not given) | 1000 (≈ 2330 µM) | 250 (≈ 582 µM) | 250 (≈ 582 µM) | 500 (≈ 1160 µM) | 500 (≈ 1160 µM) | 500 (≈ 1160 µM) | 200 (≈ 466 µM) | 250 (≈ 582 µM)
26 | Cc1ccc2[nH]c(=O)c(C3NC(=S)N(c4ccccc4)C4=C3C(=O)CCC4)cc2c1 (stereo not given) | 500 (≈ 1200 µM) | 1000 (≈ 2410 µM) | 250 (≈ 602 µM) | 500 (≈ 1200 µM) | 500 (≈ 1200 µM) | 500 (≈ 1200 µM) | 250 (≈ 602 µM) | 500 (≈ 1200 µM)
27 | O=C(N[C@H](CO)[C@H](O)c1ccc([N+](=O)[O-])cc1)C(Cl)Cl [CHLORAMPHENICOL] |  |  | 50 (≈ 155 µM) | 50 (≈ 155 µM) | 50 (≈ 155 µM) | 50 (≈ 155 µM) | 50 (≈ 155 µM) | 50 (≈ 155 µM)
28 | CCn1cc(C(=O)O)c(=O)c2cc(F)c(N3CCNCC3)cc21 [NORFLOXACIN] |  |  | 50 (≈ 157 µM) | 100 (≈ 313 µM) | 10 (≈ 31.3 µM) | 10 (≈ 31.3 µM) | 10 (≈ 31.3 µM) | 10 (≈ 31.3 µM)
